The values below come from patent US20150250173A1, “PESTICIDALLY ACTIVE MIXTURES COMPRISING ANTHRANILAMIDE COMPOUNDS” (BASF SE, priority 2012, published 2015).

Read-outs that look alike come from different tables or passages of the source.

Common to all, as to assay type: cell-based
Common to all, as to details: single compound, 7 days

One test concerns Septoria tritici. The test can be described thus: Activity against leaf blotch on wheat caused by Septoria tritici (Septtr), microtiter plate.
The subject of the next test is Pyricularia oryzae.
Another test concerns Phytophthora infestans.
Another test concerns Botrytis cinerea. The test can be described thus: Activity against the grey mold Botrytis cinerea in the microtiterplate test (Botrci).

Regarding `CCS(CC)=NC(=O)c1cc(Cl)cc(Cl)c1NC(=O)c1cc(C(F)(F)F)nn1-c1ncccc1Cl` [Compound I-16, 2-(3-chloro-2-pyridyl)-N-[2,4-dichloro-6-[(diethyl-λ^4-sulfanylidene)carbamoyl]phenyl]-5-(trifluoromethyl)pyrazole-3-carboxamide], the Observed efficacy in the test with Septoria tritici (4 ppm) is recorded as 16; with Septoria tritici (63 ppm) it was 17; in the test with Pyricularia oryzae (1 ppm), 3; with Pyricularia oryzae (4 ppm), 4; with Phytophthora infestans (16 ppm) it was 23.

For `CCS(CC)=NC(=O)c1cc(Cl)cc(C)c1NC(=O)c1cc(C(F)(F)F)nn1-c1ncccc1Cl` [Compound I-11, 2-(3-chloro-2-pyridyl)-N-[2-methyl-4-chloro-6-[(diethyl-λ^4-sulfanylidene)carbamoyl]phenyl]-5-(trifluoromethyl)pyrazole-3-carboxamide], the Observed efficacy in the test with Pyricularia oryzae (1 ppm) amounted to 0; in the test with Pyricularia oryzae (4 ppm), 3; with Pyricularia oryzae (63 ppm), 10.

As to `CO/N=C(/C1=NOCCO1)c1ccccc1Oc1ncnc(Oc2ccccc2Cl)c1F` [Fluoxastrobin], in the test on Septoria tritici (0.25 ppm), the Observed efficacy is on record as 70.

On to `CON=C(C(=O)OC)c1ccccc1CON=C(C)c1cccc(C(F)(F)F)c1` [Trifloxystrobin], for which the Observed efficacy with Septoria tritici (0.016 ppm) stood at 62; in the test on Pyricularia oryzae (0.016 ppm) it was 29; with Pyricularia oryzae (0.063 ppm) it was 29.

Compound `OC(Cc1ccccc1Cl)(Cn1nc[nH]c1=S)C1(Cl)CC1` (stereo not shown) [Prothioconazol] gave an Observed efficacy with Septoria tritici (0.063 ppm) of 62.

For `CO/C=C(/C(=O)OC)c1ccccc1Oc1cc(Oc2ccccc2C#N)ncn1` [Azoxystrobin], in the test with Pyricularia oryzae (0.016 ppm), the Observed efficacy is on record as 38.

The compound `O=C(Nc1ccccc1-c1ccc(Cl)cc1)c1cccnc1Cl` [Boscalid] had an Observed efficacy in the test with Pyricularia oryzae (16 ppm) of 10.

In the case of `Cc1cc(Cl)cc(C(=O)N=S(C(C)C)C(C)C)c1NC(=O)c1cc(C(F)(F)F)nn1-c1ncccc1Cl` [Compound I-21, 2-(3-chloro-2-pyridyl)-N-[2-methyl-4-chloro-6-[(bis-2-propyl-λ^4-sulfanylidene)carbamoyl]phenyl]-5-(trifluoromethyl)pyrazole-3-carboxamide], the Observed efficacy turned out to be 0 in the test on Botrytis cinerea (4 ppm); 4 in the test on Botrytis cinerea (16 ppm); 12 in the test with Septoria tritici (4 ppm); 0 with Pyricularia oryzae (1 ppm); 0 with Pyricularia oryzae (4 ppm).

Turning to `COC(=O)N(OC)c1ccccc1COc1ccn(-c2ccc(Cl)cc2)n1` [Pyraclostrobin], the Observed efficacy in the test on Pyricularia oryzae (0.004 ppm) is reported as 39; with Pyricularia oryzae (0.016 ppm), 49; in the test on Phytophthora infestans (0.063 ppm), 10.

For the compound Mancozeb, the Observed efficacy with Septoria tritici (4 ppm) is given as 48.

With `Fc1ccc([C@]2(Cn3cncn3)O[C@H]2c2ccccc2Cl)cc1` [Epoxiconazol], the Observed efficacy with Botrytis cinerea (0.25 ppm) amounted to 59.

Take `CCCN(CCOc1c(Cl)cc(Cl)cc1Cl)C(=O)n1ccnc1` [Prochloraz]: in the test with Botrytis cinerea (0.016 ppm), the Observed efficacy is given as 14.

Regarding `CO/C=C(/C(=O)OC)c1ccccc1COc1cccc(C(F)(F)F)n1` [Picoxystrobin], the results for the Observed efficacy in the test with Septoria tritici (0.063 ppm) and with Pyricularia oryzae (0.063 ppm) were 53 and 72, respectively.
